# Counter-ions that a name gives are not always drawn.
# Experiments:
# rSmTAChE [1] = biological target: T1, rSmTAChE (Schistosoma mansoni, UniProt A0A3Q0KMM5); assay: biochemical
# rSmTAChE [2] = biological target: T1, rSmTAChE; format: biochemical; conditions: for IC50: read-out: qAC50 (IC50), rSmTAChE
# [3] = biological target: recombinant human acetylcholinesterase, rHsAChE (Homo sapiens, UniProt P22303); assay: biochemical; conditions: for IC50: read-out: qAC50 (IC50), rHsAChE; for inhibition of rHsAChE, result in words: dose–response, up to 40 µM
# recombinant human acetylcholinesterase, rHsAChE, sequence (P22303 32-614): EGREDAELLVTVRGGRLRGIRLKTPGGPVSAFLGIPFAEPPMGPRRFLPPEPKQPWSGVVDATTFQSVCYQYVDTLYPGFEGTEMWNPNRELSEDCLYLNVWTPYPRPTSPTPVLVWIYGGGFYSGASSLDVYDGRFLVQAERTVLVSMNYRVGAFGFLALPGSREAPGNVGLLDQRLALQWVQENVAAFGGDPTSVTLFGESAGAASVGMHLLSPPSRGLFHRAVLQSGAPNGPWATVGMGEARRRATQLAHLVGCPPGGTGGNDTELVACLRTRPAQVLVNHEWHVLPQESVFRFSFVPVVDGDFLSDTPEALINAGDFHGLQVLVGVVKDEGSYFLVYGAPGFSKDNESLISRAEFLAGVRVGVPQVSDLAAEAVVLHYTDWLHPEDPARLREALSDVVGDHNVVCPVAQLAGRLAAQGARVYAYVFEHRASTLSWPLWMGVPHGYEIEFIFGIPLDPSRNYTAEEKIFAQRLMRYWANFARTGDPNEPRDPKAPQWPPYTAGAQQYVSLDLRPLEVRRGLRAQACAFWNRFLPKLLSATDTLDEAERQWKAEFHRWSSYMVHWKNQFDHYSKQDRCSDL
# 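For Inhibition (%) (Average) in this document: mostly 20 µM final but a few compounds at 5 or 10 µM.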
# 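For Inhibition (%) Replicate A in this document: mostly 20 µM final but a few compounds at 5 or 10 µM.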
# 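For Inhibition (%) Replicate B in this document: mostly 20 µM final but a few compounds at 5 or 10 µM.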
# T1 sequence (A0A3Q0KMM5 27-661 limits assumed): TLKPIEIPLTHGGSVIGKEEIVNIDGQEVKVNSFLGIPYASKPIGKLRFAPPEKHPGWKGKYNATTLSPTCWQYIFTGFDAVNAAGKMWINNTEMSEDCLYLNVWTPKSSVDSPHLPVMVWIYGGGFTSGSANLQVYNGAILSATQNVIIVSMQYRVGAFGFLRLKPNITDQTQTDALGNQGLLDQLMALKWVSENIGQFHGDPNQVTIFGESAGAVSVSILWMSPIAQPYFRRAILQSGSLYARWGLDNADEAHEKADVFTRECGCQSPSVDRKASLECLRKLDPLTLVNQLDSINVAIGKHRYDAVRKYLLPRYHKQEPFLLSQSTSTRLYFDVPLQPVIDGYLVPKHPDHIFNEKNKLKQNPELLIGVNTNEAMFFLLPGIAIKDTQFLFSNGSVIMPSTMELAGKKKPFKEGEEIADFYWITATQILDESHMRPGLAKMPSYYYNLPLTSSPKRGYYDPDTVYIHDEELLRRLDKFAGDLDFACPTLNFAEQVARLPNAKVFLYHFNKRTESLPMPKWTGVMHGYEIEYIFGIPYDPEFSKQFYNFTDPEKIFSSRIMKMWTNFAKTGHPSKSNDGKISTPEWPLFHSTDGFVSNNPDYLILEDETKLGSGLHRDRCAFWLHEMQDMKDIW
SMILES,Inhibition (%) (Average) (rSmTAChE [1]),Inhibition (%) Replicate A (rSmTAChE [1]),Inhibition (%) Replicate B (rSmTAChE [1]),"Data Mode (curve class), rSmTAChE (rSmTAChE [2])","Data Mode (curve class), rHsAChE [3]",IC50 [3],also measured
COC(=O)C1=C(C)NC(C)=C(C(=O)OC(C)(C)CN(C)CCC(c2ccccc2)c2ccccc2)C1c1cccc([N+](=O)[O-])c1 (centres unmarked) [BRD-A18992208-003-02-7],78.14%,77.49%,78.79%,inactive,inactive,,
Cc1cc(Oc2ccc3nc(COc4ccc(CC5SC(=O)NC5=O)cc4)n(C)c3c2)cc(C)c1N (centres unmarked) [BRD-A24560335-300-01-2],64.01%,61.34%,66.67%,decreasing (weakly active),inactive,,IC50 (rSmTAChE [2]): > 38 µM
Clc1ccc(C(c2ccccc2Cl)C(Cl)Cl)cc1 (centres unmarked) [BRD-A31204924-001-14-2],71.30%,71.94%,70.66%,inactive,decreasing (weakly active),> 38 µM,
Clc1ccc(C(Cn2ccnc2)OCc2ccc(Sc3ccccc3)cc2)c(Cl)c1 (centres unmarked) [BRD-A33697453-008-02-4],70.27%,64.14%,76.40%,inactive,inactive,,
CCCCCCCCCCCC([NH2+][O-])c1cc(C)ccc1O (centres unmarked) [BRD-A37752546-001-01-9],84.23%,82.45%,86.01%,inactive,decreasing,7.8 µM,
CC(=O)[C@@]12OC(C)(c3ccccc3)O[C@@H]1C[C@H]1[C@@H]3CCC4=CC(=O)CC[C@]4(C)[C@H]3CC[C@@]12C (some centres unmarked) [BRD-A41774846-001-01-4],86.37%,86.06%,86.68%,decreasing (weakly active),inactive,,IC50 (rSmTAChE [2]): > 38 µM
COC(=O)C1=C(C)NC(C)=C(C(=O)OC/C=C/c2ccccc2)C1c1cccc([N+](=O)[O-])c1 (centres unmarked) [BRD-A68083442-001-01-6],87.10%,86.49%,87.72%,inactive,inactive,,
Clc1ccc(CSC(Cn2ccnc2)c2ccc(Cl)cc2Cl)cc1 (centres unmarked) [BRD-A70649075-008-30-8],65.58%,67.22%,63.95%,decreasing (weakly active),decreasing (weakly active),> 38 µM,IC50 (rSmTAChE [2]): > 38 µM
C[C@]12CCC3c4ccc(OC(=O)c5ccccc5)cc4CCC3C1CC[C@@H]2O (some centres unmarked) [BRD-A74765037-001-01-1],66.55%,67.53%,65.56%,inactive,inactive,,
C[C@]12CC[C@@H]3c4ccc(O)cc4C[C@@H](CCCCCCCCC[S+]([O-])CCCC(F)(F)C(F)(F)F)[C@H]3[C@@H]1CC[C@@H]2O (some centres unmarked) [BRD-A85667082-001-10-1],87.19%,87.84%,86.54%,,,,
C[C@]12CC[C@@H]3c4ccc(O)cc4C[C@@H](CCCCCCCCC[S+]([O-])CCCC(F)(F)C(F)(F)F)[C@H]3[C@@H]1CC[C@@H]2O (some centres unmarked) [BRD-A85667082-001-11-9],64.36%,64.01%,64.71%,inactive,decreasing (weakly active),> 13.5 µM,
C[C@]12CC[C@@H]3c4ccc(O)cc4C[C@@H](CCCCCCCCC[S+]([O-])CCCC(F)(F)C(F)(F)F)[C@H]3[C@@H]1CC[C@@H]2O (some centres unmarked) [BRD-A85667082-001-12-7],,,,decreasing (weakly active),inactive,,IC50 (rSmTAChE [2]): > 38 µM
C[C@]12CC[C@@H]3c4ccc(O)cc4C[C@@H](CCCCCCCCC[S+]([O-])CCCC(F)(F)C(F)(F)F)[C@H]3[C@@H]1CC[C@@H]2O (some centres unmarked) [BRD-A85667082-001-13-5],86.15%,85.50%,86.80%,inactive,inactive,,
CC(C)(C)c1ccc(CN2CCN(C(c3ccccc3)c3ccc(Cl)cc3)CC2)cc1 (centres unmarked) [BRD-A91444184-300-01-9],84.37%,84.75%,83.99%,inactive,inactive,,
C[C@]12CCC3c4ccc(O)cc4CCC3C1CC[C@@H]2OC(=O)CCC1CCCC1 (some centres unmarked) [BRD-A91452556-001-04-0],88.63%,90.28%,86.98%,inactive,decreasing (weakly active),> 38 µM,
COC(=O)CCSCc1ccc(-c2onc(C)c2NC(=O)OC(C)c2ccccc2Cl)cc1 (centres unmarked) [BRD-A94323479-001-02-8],67.17%,60.59%,73.75%,inactive,decreasing (weakly active),> 38 µM,
CCC(CC)C(c1ccc(Nc2nc3ccccc3s2)cc1)n1cncn1 (centres unmarked) [BRD-A95755460-001-01-3],71.38%,75.72%,67.03%,decreasing (weakly active),inactive,,IC50 (rSmTAChE [2]): > 38 µM

SMILES,Inhibition (%) (Average) (rSmTAChE [1]),Inhibition (%) Replicate A (rSmTAChE [1]),Inhibition (%) Replicate B (rSmTAChE [1]),"Data Mode (curve class), rSmTAChE (rSmTAChE [2])","Data Mode (curve class), rHsAChE [3]",IC50 [3],also measured
N#C[C@H]1[C@H](c2ccc(C#CC3CC3)cc2)[C@H](CO)N1C(=O)Cc1ccccn1 [BRD-K00124439-001-01-2],63.26%,63.67%,62.84%,,,,rSmTAChE Data Mode (rSmTAChE [2]): decreasing (weakly active); rHsAChE Data Mode [3]: inactive
O=C(C[C@H]1C=C[C@H](NC(=O)c2ccncc2)[C@@H](CO)O1)Nc1ccc(-c2ccccc2)cc1 [BRD-K04695993-001-01-5],82.34%,77.66%,87.01%,,,,rSmTAChE Data Mode (rSmTAChE [2]): inactive; rHsAChE Data Mode [3]: inactive
CC(C)Oc1ccc(-c2cnc3c(-c4ccnc5ccccc45)cnn3c2)cc1 [BRD-K39381259-001-01-0],,,,inactive,decreasing (weakly active),> 13.5 µM,
CC(C)Oc1ccc(-c2cnc3c(-c4ccnc5ccccc45)cnn3c2)cc1 [BRD-K39381259-001-02-8],67.85%,64.38%,71.32%,,,,
C[C@H](Oc1cc(-c2cnn(C3CCNCC3)c2)cnc1N)c1c(Cl)ccc(F)c1Cl [BRD-K40308497-001-01-2],86.27%,85.50%,87.03%,,,,
C[C@H](Oc1cc(-c2cnn(C3CCNCC3)c2)cnc1N)c1c(Cl)ccc(F)c1Cl [BRD-K40308497-001-02-0],,,,decreasing,decreasing,21.2 µM,IC50 (rSmTAChE [2]): 26.8 µM
CC(C)(O)c1ccccc1CC[C@@H](SCC1(CC(=O)O)CC1)c1cccc(/C=C/c2ccc3ccc(Cl)cc3n2)c1 [BRD-K69470111-001-01-2],,,,decreasing (weakly active),increasing (weakly active),> 38 µM,IC50 (rSmTAChE [2]): > 38 µM
CC(C)(O)c1ccccc1CC[C@@H](SCC1(CC(=O)O)CC1)c1cccc(/C=C/c2ccc3ccc(Cl)cc3n2)c1 [BRD-K69470111-236-09-7],81.70%,81.35%,82.06%,,,,
CC1(C)CCC(C)(C)c2cc(C#Cc3ccc(C(=O)O)cc3)ccc21 [BRD-K81004638-001-01-7],,,,decreasing,decreasing,14.5 µM,IC50 (rSmTAChE [2]): 19.8 µM
CC1(C)CCC(C)(C)c2cc(C#Cc3ccc(C(=O)O)cc3)ccc21 [BRD-K81004638-001-02-5],66.58%,64.60%,68.56%,,,,
CCCCCCCCc1ccc(CCC(N)(CO)CO)cc1 [BRD-K88025533-003-03-3],70.74%,73.25%,68.23%,,,,
CCCCCCCCc1ccc(CCC(N)(CO)CO)cc1 [BRD-K88025533-003-04-1],,,,inactive,inactive,,
"C/C=C1\[C@H]2C=C(C)C[C@]1(N)c1ccc(=O)[nH]c1C2 [Huperzine A, reference compound]",,,,decreasing,,,"inhibition at 20 µM (rSmTAChE [1]; read-out: rSmTAChE HTS Inhibition (Ave, %)): 64.1%"
"Nc1ccc(O)c(C(=O)O)c1 [Mesalazine, reference compound]",,,,decreasing,,,"IC50 (µM) rHsAChE [3]: Inactive; inhibition of rHsAChE, result in words [3]: no detectable inhibitory effect; inhibition of rHsAChE, result in words ([3]; listed as #19): no inhibition detected"
"CNC(=O)Oc1ccc2c(c1)[C@]1(C)CCN(C)[C@@H]1N2C [Physostigmine salicylate, reference compound]",,,,decreasing,decreasing,,
"CNC(=O)Oc1ccc2c(c1)[C@]1(C)CCN(C)[C@@H]1N2C [Physostigmine sulfate, reference compound]",,,,decreasing,decreasing,,
